Test [1] deals with T1, Endothelin-1 receptor (Mus musculus, UniProt Q61614).
T1 sequence (Q61614 whole entry): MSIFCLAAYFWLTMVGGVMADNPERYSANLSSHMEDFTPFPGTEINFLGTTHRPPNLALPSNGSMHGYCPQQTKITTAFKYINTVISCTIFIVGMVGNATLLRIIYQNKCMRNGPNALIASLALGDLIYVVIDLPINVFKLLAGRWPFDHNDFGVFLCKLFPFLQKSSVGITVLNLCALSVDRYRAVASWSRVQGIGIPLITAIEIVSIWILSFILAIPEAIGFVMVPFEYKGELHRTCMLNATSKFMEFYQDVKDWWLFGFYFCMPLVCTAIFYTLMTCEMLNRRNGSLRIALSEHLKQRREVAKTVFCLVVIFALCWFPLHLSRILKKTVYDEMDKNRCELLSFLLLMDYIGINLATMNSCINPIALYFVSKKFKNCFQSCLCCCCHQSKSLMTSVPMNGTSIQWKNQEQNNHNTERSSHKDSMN
Kind of test: Inhibition of [125I]ET1 binding to Endothelin A receptor of murine 3T3 cells. It is filed as cell-based, NIH3T3.

Test [2] addresses T2, Endothelin-1 receptor (Homo sapiens, UniProt P25101).
T2 sequence (P25101 whole entry): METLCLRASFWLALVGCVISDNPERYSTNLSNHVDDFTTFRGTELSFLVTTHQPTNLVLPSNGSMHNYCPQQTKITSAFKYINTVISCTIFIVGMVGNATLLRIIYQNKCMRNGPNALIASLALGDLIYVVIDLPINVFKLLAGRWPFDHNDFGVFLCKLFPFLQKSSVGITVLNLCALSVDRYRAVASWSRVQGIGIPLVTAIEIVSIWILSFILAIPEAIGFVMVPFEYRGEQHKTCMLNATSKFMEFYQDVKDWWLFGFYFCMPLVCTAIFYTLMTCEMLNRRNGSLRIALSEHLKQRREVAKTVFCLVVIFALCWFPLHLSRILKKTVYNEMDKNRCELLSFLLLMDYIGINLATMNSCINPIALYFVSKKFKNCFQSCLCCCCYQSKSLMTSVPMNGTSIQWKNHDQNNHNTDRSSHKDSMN
Briefly: The inhibitory constant was evaluated against Endothelin A receptor.

The target in test [3] is T1, Endothelin-1 receptor. Briefly: The compound was tested for the binding affinity against eEndothelin A receptor in murine 3T3 cells using [125I]ET1 as a radioligand. It is filed as cell-based, NIH3T3.

Residues, ends and D or L forms follow the SMILES beside them.

One may read the IC50 as the midpoint of a concentration-inhibition curve.

At Endothelin-1 receptor [1], `CC[C@H](C)[C@H](NC(=O)[C@H](CC(=O)O)NC(=O)[C@H](CCCN)NC(=O)[C@@H](Cc1c[nH]c2ccccc12)NC(C)=O)C(=O)N[C@H](C(=O)N[C@@H](Cc1c[nH]c2ccccc12)C(=O)O)[C@@H](C)CC` had an IC50 of 0.015 µM.

With `CC[C@H](C)[C@H](NC(=O)[C@H](CC(=O)O)NC(=O)[C@@H](Cc1ccccc1)NC(=O)[C@@H](Cc1ccccc1)NC(C)=O)C(=O)N[C@H](C(=O)N[C@@H](Cc1c[nH]c2ccccc12)C(=O)O)[C@@H](C)CC` (HELM PEPTIDE1{[ac].[dF].[dF].D.I.I.W}$$$$V2.0), on Endothelin-1 receptor [1], the IC50 was determined as 0.098 µM.

Turning to `CC[C@H](C)[C@H](NC(=O)[C@H](CC(=O)O)NC(=O)[C@H](CCCN)NC(=O)[C@@H](Cc1ccc(O)cc1)NC(C)=O)C(=O)N[C@H](C(=O)N[C@@H](Cc1c[nH]c2ccccc12)C(=O)O)[C@@H](C)CC`, the IC50 stood at 0.026 µM on Endothelin-1 receptor [1] and 0.4 µM at Endothelin-1 receptor [2].

Compound `CC[C@H](C)[C@H](NC(=O)[C@H](CCc1ccccc1)NC(=O)[C@H](CC(=O)O)NC(=O)[C@H](CCCN)NC(=O)[C@@H](Cc1ccccc1)NC(C)=O)C(=O)N[C@@H](Cc1c[nH]c2ccccc12)C(=O)O` registered an IC50 at Endothelin-1 receptor [1] of 0.114 µM.

`CC[C@H](C)[C@H](NC(=O)[C@H](CC(=O)O)NC(=O)[C@H](CCc1ccccc1)NC(=O)[C@@H](Cc1ccccc1)NC(C)=O)C(=O)N[C@H](C(=O)N[C@@H](Cc1c[nH]c2ccccc12)C(=O)O)[C@@H](C)CC` had an IC50 on Endothelin-1 receptor [1] of 0.07 µM.

`CC[C@H](C)[C@H](NC(=O)[C@H](CC(=O)O)NC(=O)[C@H](CC(N)=O)NC(=O)[C@@H](Cc1ccccc1)NC(C)=O)C(=O)N[C@H](C(=O)N[C@@H](Cc1c[nH]c2ccccc12)C(=O)O)[C@@H](C)CC` displayed an IC50 at Endothelin-1 receptor [1] of 0.075 µM.

For `CC[C@H](C)[C@@H](NC(=O)[C@@H](CC(=O)O)NC(=O)[C@H]1CCCN1C(=O)[C@@H](Cc1ccccc1)NC(C)=O)C(=O)N[C@@H](C(=O)N[C@H](Cc1c[nH]c2ccccc12)C(=O)O)[C@@H](C)CC`, the IC50 worked out at 0.045 µM at Endothelin-1 receptor [1] (nih3t3) and 0.015 µM against Endothelin-1 receptor [2].

`CC[C@H](C)[C@H](NC(=O)[C@H](CC(=O)O)NC(=O)[C@H](Cc1c[nH]c2ccccc12)NC(=O)[C@@H](Cc1ccccc1)NC(C)=O)C(=O)N[C@H](C(=O)N[C@@H](Cc1c[nH]c2ccccc12)C(=O)O)[C@@H](C)CC` yielded a half-maximal inhibitory concentration (IC50) on Endothelin-1 receptor [1] of 0.079 µM.

For `CC[C@H](C)[C@H](NC(=O)[C@H](CC(=O)O)NC(=O)CN(Cc1ccccc1)C(=O)[C@@H](Cc1ccccc1)NC(C)=O)C(=O)N[C@H](C(=O)N[C@@H](Cc1c[nH]c2ccccc12)C(=O)O)[C@@H](C)CC`, the IC50 on Endothelin-1 receptor [1] turned out to be 0.012 µM; against Endothelin-1 receptor [2], 0.03 µM.

Compound `CC[C@H](C)[C@H](NC(=O)[C@H](CC(=O)O)NC(=O)[C@H](Cc1ccc(O)cc1)NC(=O)[C@@H](Cc1ccccc1)NC(C)=O)C(=O)N[C@H](C(=O)N[C@@H](Cc1c[nH]c2ccccc12)C(=O)O)[C@@H](C)CC` came in with an IC50 at Endothelin-1 receptor [1] of 0.077 µM.

In turn, `CC[C@H](C)[C@H](NC(=O)[C@H](CC(=O)O)NC(=O)[C@H](Cc1ccccc1)NC(=O)[C@@H](Cc1ccccc1)NC(C)=O)C(=O)N[C@H](C(=O)N[C@@H](Cc1c[nH]c2ccccc12)C(=O)O)[C@@H](C)CC` (HELM PEPTIDE1{[ac].[dF].F.D.I.I.W}$$$$V2.0) yielded an IC50 on Endothelin-1 receptor [1] of 0.27 µM.

As to `CC[C@H](C)[C@H](NC(=O)[C@H](CC(=O)O)NC(=O)[C@H](C)NC(=O)[C@@H](Cc1ccccc1)NC(C)=O)C(=O)N[C@H](C(=O)N[C@@H](Cc1c[nH]c2ccccc12)C(=O)O)[C@@H](C)CC` (HELM PEPTIDE1{[ac].[dF].A.D.I.I.W}$$$$V2.0), on Endothelin-1 receptor [1], the IC50 came out at 0.057 µM.

In turn, `CC[C@H](C)[C@H](NC(=O)[C@H](CC(=O)O)NC(=O)[C@H](CCCN)NC(=O)[C@@H](Cc1ccccc1)NC(C)=O)C(=O)N[C@H](C(=O)N[C@@H](Cc1c[nH]c2ccccc12)C(=O)O)[C@@H](C)CC` (HELM PEPTIDE1{[ac].[dF].[Orn].D.I.I.W}$$$$V2.0) had an IC50 at Endothelin-1 receptor [3] of 0.23 µM.

For the origin of these results see ChEMBL document CHEMBL1127202, “Endothelin receptor ligands. replacement net approach to SAR determination of potent hexapeptides” (Bioorg Med Chem Lett, 1993).
